Results reported in the NIST ThermoML archive (doi:10.1021/acs.jced.7b00344).
Numbers after ± are expanded uncertainties.

How the values were obtained:
[1] = Liquid; for viscosity / mass density: 101.3 kPa; for viscosity: Capillary tube (Ostwald / Ubbelohde) method; for mass density: Pycnometric method; for vapor or sublimation pressure: Ebulliometric method (Recirculating still)
[2] = xn = mol fraction of the nth substance listed; conditions: 101.3 kPa, Liquid, x1 = 1; for viscosity: Capillary tube (Ostwald / Ubbelohde) method; for mass density: Pycnometric method

CC(=O)CCCCl [1-chloro-4-pentanone]
[1]
Conditions | mass density [kg/m3] | vapor or sublimation pressure [kPa] | viscosity [mPa·s]
303.15 K | 1051.3 ± 1.1 | – | 1.582 ± 0.033
313.15 K | 1041.1 ± 1.1 | – | 1.318 ± 0.028
323.15 K | 1031.2 ± 1.1 | – | 1.078 ± 0.023
333.15 K | 1020.8 ± 1.1 | – | 0.9667 ± 0.02
343.2 K | – | 2.91 ± 0.6 | –
353.1 K | – | 4.66 ± 0.6 | –
363.1 K | – | 7.15 ± 0.6 | –
373.8 K | – | 10.5 ± 0.61 | –
393.8 K | – | 20.79 ± 0.61 | –
404.6 K | – | 30.23 ± 0.63 | –
413.8 K | – | 41.16 ± 0.64 | –
423.8 K | – | 52.6 ± 0.64 | –
433.5 K | – | 62.27 ± 0.66 | –
438.1 K | – | 72.35 ± 0.71 | –
443.6 K | – | 81.58 ± 0.7 | –
449.3 K | – | 92.85 ± 0.73 | –
454 K | – | 103.42 ± 0.75 | –

CC(=O)C1CC1 [1-cyclopropyl ethanone]
[1]
Conditions | mass density [kg/m3] | vapor or sublimation pressure [kPa] | viscosity [mPa·s]
300 K | – | 3.65 ± 0.6 | –
303.15 K | 889.8 ± 1.1 | – | 0.5572 ± 0.012
310.1 K | – | 6.06 ± 0.6 | –
313.15 K | 880.3 ± 1.1 | – | 0.5015 ± 0.011
320.8 K | – | 9.95 ± 0.61 | –
323.15 K | 870.6 ± 1.1 | – | 0.4524 ± 0.0096
333.15 K | 861.2 ± 1.1 | – | 0.3942 ± 0.0085
337 K | – | 20.07 ± 0.62 | –
347.7 K | – | 30.05 ± 0.64 | –
355.6 K | – | 40.07 ± 0.66 | –
362.1 K | – | 49.78 ± 0.69 | –
367.6 K | – | 59.85 ± 0.71 | –
372.6 K | – | 70.04 ± 0.74 | –
376.9 K | – | 80.03 ± 0.78 | –
380.6 K | – | 89.62 ± 0.81 | –
384.8 K | – | 101.3 | –
385 K | – | 102.18 ± 0.83 | –

CC(=O)C1CC1 [1-cyclopropyl ethanone] + CC(=O)C1CCOC1=O
[2]
Conditions | mass density [kg/m3] | viscosity [mPa·s]
303.15 K | 889.8 ± 1.1 | 0.5572 ± 0.012
313.15 K | 880.3 ± 1.1 | 0.5015 ± 0.011
323.15 K | 870.6 ± 1.1 | 0.4524 ± 0.0096
333.15 K | 861.2 ± 1.1 | 0.3942 ± 0.0085

CC(=O)C1CCOC1=O (centres undefined) [2-acetylbutyrolactone]
[1]
Conditions | mass density [kg/m3] | vapor or sublimation pressure [kPa] | viscosity [mPa·s]
303.15 K | 1185.7 ± 1.1 | – | 3.794 ± 0.079
313.15 K | 1178.3 ± 1.1 | – | 3.424 ± 0.072
323.15 K | 1168.9 ± 1.1 | – | 3.067 ± 0.064
333.15 K | 1159.4 ± 1.1 | – | 2.719 ± 0.057
385 K | – | 0.552 ± 0.6 | –
395.1 K | – | 1.02 ± 0.6 | –
405.2 K | – | 1.77 ± 0.6 | –
415.3 K | – | 2.92 ± 0.6 | –
425.5 K | – | 4.61 ± 0.6 | –
434.6 K | – | 6.98 ± 0.6 | –
445.1 K | – | 10 ± 0.61 | –
464.5 K | – | 20 ± 0.61 | –
478.2 K | – | 30.05 ± 0.62 | –
489.4 K | – | 40.17 ± 0.64 | –
505.8 K | – | 60.05 ± 0.65 | –
511.5 K | – | 69.06 ± 0.68 | –
517.3 K | – | 78.1 ± 0.68 | –
523.3 K | – | 88.01 ± 0.71 | –
530.8 K | – | 103.54 ± 0.73 | –
530.9 K | – | 101.3 | –
